The values that follow come from patent publication US9932341B2, “Use of pyrazolopyrimidine derivatives for the treatment of PI3K-delta related disorders” (Incyte Corporation, priority 2013, dated 2018).

In this experiment the target is PI3Kδ (p110δ/p85α) (Homo sapiens (Human), UniProt O00329). Description: PI3Kδ Scintillation Proximity Assay (Example A3). Format: biochemical. As to conditions: 20 μM ATP, 20 μM PIP2, 4 nM PI3Kδ, read-out: PI3Kδ SPA IC50. A digest of the protocol:
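SPA with 4 nM p110δ/p85α, 20 μM PIP2, 20 μM ATP plus [γ-^33P]ATP, in 20 mM MOPS pH 6.7, 10 mM MgCl2, 5 mM DTT, 0.03% CHAPS, 0.5% DMSO, room temperature. Stopped with EDTA/ATP, WGA SPA beads, overnight shaking, scintillation counting. IC50 from % control activity vs log concentration.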

Where a name gives a salt, the structure may show the parent alone.

Chain of PI3Kδ (p110δ/p85α) (O00329 whole entry): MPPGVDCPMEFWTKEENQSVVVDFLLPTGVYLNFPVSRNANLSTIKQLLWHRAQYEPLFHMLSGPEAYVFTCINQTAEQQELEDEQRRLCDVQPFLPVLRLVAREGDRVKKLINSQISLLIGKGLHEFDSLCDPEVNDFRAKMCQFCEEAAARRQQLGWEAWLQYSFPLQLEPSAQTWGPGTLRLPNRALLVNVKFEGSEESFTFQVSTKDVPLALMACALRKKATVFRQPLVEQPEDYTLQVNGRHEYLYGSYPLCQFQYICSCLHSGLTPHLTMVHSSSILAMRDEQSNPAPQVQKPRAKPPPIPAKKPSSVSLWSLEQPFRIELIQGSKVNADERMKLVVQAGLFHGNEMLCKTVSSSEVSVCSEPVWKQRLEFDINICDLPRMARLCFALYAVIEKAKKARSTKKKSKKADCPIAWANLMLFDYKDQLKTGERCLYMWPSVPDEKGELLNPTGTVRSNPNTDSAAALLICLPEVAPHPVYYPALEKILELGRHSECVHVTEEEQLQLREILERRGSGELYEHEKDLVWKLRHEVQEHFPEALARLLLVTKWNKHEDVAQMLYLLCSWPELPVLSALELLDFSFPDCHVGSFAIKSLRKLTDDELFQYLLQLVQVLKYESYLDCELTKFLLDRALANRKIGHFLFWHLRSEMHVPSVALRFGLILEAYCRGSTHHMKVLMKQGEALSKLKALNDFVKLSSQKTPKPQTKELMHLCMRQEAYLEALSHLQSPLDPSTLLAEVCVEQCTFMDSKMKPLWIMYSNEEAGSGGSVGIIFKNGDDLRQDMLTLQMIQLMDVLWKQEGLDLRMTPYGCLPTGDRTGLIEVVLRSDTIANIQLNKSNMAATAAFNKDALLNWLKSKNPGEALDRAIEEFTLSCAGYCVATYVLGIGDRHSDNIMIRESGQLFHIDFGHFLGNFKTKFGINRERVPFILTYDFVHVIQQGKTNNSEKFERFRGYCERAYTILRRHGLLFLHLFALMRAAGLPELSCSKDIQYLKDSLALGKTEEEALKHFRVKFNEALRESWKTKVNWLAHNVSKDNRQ
Chain of PI3Kδ (p110δ/p85α) (P27986 whole entry partner): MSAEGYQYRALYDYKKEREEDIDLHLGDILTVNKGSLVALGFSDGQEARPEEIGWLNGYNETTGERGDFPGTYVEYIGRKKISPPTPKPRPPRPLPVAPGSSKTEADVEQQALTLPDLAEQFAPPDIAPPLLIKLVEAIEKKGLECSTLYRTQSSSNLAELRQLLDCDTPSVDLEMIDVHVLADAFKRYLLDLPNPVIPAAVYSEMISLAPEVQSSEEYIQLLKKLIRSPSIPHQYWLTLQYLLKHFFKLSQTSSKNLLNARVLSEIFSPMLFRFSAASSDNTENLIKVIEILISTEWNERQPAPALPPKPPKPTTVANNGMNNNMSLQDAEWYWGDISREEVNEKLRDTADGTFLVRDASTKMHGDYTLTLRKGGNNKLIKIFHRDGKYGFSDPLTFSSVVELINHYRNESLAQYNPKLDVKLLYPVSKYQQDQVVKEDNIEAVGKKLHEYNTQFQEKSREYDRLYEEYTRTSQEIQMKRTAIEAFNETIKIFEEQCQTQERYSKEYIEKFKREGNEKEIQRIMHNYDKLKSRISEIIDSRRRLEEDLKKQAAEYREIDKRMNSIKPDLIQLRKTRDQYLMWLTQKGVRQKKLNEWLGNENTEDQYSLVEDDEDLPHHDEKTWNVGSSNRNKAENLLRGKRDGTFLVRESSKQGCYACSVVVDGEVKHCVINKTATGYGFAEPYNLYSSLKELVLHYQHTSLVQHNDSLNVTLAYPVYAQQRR

Regarding `COc1c(C(C)n2nc(C)c3c(N)ncnc32)cc(Cl)c(C#N)c1C1CN(C(=O)N(C)C)C1` (single isomer, unassigned) [Example 296, 3-{3-[1-(4-Amino-3-methyl-1H-pyrazolo[3,4-d]pyrimidin-1-yl)ethyl]-5-chloro-6-cyano-2-methoxyphenyl}-N,N-dimethylazetidine-1-carboxamide], the IC50 was less than 0.01 µM.
Turning to `CCOc1c(C(C)n2cc(C)c3c(N)ncnc32)cc(Cl)c(C#N)c1C1CN(C(C)C)C1` (single isomer, unassigned) [Example 307, 4-[1-(4-Amino-5-methyl-7H-pyrrolo[2,3-d]pyrimidin-7-yl)ethyl]-6-chloro-3-ethoxy-2-(1-isopropylazetidin-3-yl)benzonitrile], the IC50 is less than 0.01 µM.
As for `COc1c(C(C)n2nc(C)c3c(N)ncnc32)cc(C)c(C#N)c1C1CN(C[C@H](C)O)C1` (single isomer, unassigned) [Example 315], the half-maximal inhibitory concentration (IC50) is less than 0.01 µM.
Consider `CCOc1c(C(C)n2nc(C)c3c(N)ncnc32)cc(Cl)c(F)c1C1CNC(=O)C1` (single isomer, unassigned) [Example 346, 4-{3-[1-(4-amino-3-methyl-1H-pyrazolo[3,4-d]pyrimidin-1-yl)ethyl]-5-chloro-2-ethoxy-6-fluorophenyl}pyrrolidin-2-one], for which the IC50 was less than 0.01 µM.
Regarding `CCOc1c(C(C)n2nc(C)c3c(N)ncnc32)cc(Cl)c(F)c1C1COC(=O)N1` (single isomer, unassigned) [Example 353, 4-{3-[1-(4-amino-3-methyl-1H-pyrazolo[3,4-d]pyrimidin-1-yl)ethyl]-5-chloro-2-ethoxy-6-fluorophenyl}-1,3-oxazolidin-2-one], the IC50 is greater than 0.5 µM.
Regarding `CCOc1c(C(C)n2nc(C)c3c(N)ncnc32)cc(Cl)c(F)c1C1COC(=O)N1` (single isomer, unassigned) [Example 354, 4-{3-[1-(4-amino-3-methyl-1H-pyrazolo[3,4-d]pyrimidin-1-yl)ethyl]-5-chloro-2-ethoxy-6-fluorophenyl}-1,3-oxazolidin-2-one], the half-maximal inhibitory concentration (IC50) is less than 0.01 µM.
Consider `CCOc1c(C(C)n2nc(C)c3c(N)ncnc32)cc(Cl)c(F)c1C1CNC(=O)O1` (single isomer, unassigned) [Example 355, 5-{3-[1-(4-amino-3-methyl-1H-pyrazolo[3,4-d]pyrimidin-1-yl)ethyl]-5-chloro-2-ethoxy-6-fluorophenyl}-1,3-oxazolidin-2-one], for which the IC50 lay within 0.05 to 0.2 µM.
For `CCOc1c(C(C)n2nc(C)c3c(N)ncnc32)cc(Cl)c(F)c1C1CNC(=O)O1` (single isomer, unassigned) [Example 356, 5-{3-[1-(4-amino-3-methyl-1H-pyrazolo[3,4-d]pyrimidin-1-yl)ethyl]-5-chloro-2-ethoxy-6-fluorophenyl}-1,3-oxazolidin-2-one] the value was 0.05 to 0.2 µM; for `COc1c(C(C)n2nc(C)c3c(N)ncnc32)cc(Cl)c(C)c1C1CN(CC(C)O)C1` (stereo in doubt) [Example 102, (2S)-1-(3-{3-[1-(4-Amino-3-methyl-1H-pyrazolo[3,4-d]pyrimidin-1-yl)ethyl]-5-chloro-2-methoxy-6-methylphenyl}azetidin-1-yl)propan-2-ol], less than 0.01 µM; for `COc1c(C(C)n2nc(C)c3c(N)ncnc32)cc(Cl)c(F)c1C1CN(C[C@H](C)O)C1` (stereo partly drawn) [68 (1st peak), (2S)-1-(3-{3-[1-(4-Amino-3-methyl-1H-pyrazolo[3,4-d]pyrimidin-1-yl)ethyl]-5-chloro-6-fluoro-2-methoxyphenyl}azetidin-1-yl)propan-2-ol], less than 0.01 µM.
Take `CCOc1c(C(C)n2nc(C)c3c(N)ncnc32)cc(Cl)c(F)c1C1CN(C(C)C)C1` (stereo not drawn) [139 (1st peak), 1-{1-[5-Chloro-2-ethoxy-4-fluoro-3-(1-isopropylazetidin-3-yl)phenyl]ethyl}-3-methyl-1H-pyrazolo[3,4-d]pyrimidin-4-amine]: the 50% inhibitory concentration (IC50) is less than 0.01 µM.
Turning to `CCN1CC(c2c(Cl)c(Cl)cc(C(C)n3nc(C)c4c(N)ncnc43)c2OC)C1` (stereo not drawn) [298 (1st peak), 1-{1-[4,5-Dichloro-3-(1-ethylazetidin-3-yl)-2-methoxyphenyl]ethyl}-3-methyl-1H-pyrazolo[3,4-d]pyrimidin-4-amine], the IC50 is less than 0.01 µM.
Next, `CCOc1c(C(C)n2nc(C)c3c(N)ncnc32)cc(Cl)c(C#N)c1C1CNC(=O)O1` (stereo not drawn) [323 (1st peak), 4-[1-(4-amino-3-methyl-1H-pyrazolo[3,4-d]pyrimidin-1-yl)ethyl]-6-chloro-3-ethoxy-2-(2-oxo-1,3-oxazolidin-5-yl)benzonitrile]: less than 0.01 µM; `COc1c(C(C)n2nc(C)c3c(N)ncnc32)cc(Cl)c(C)c1C1CN(C(C)=O)C1` (stereo not shown) [Example 2, 1-{1-[3-(1-Acetylazetidin-3-yl)-5-chloro-2-methoxy-4-methylphenyl]ethyl}-3-methyl-1H-pyrazolo[3,4-d]pyrimidin-4-amine trifluoroacetate]: less than 0.01 µM.
As for `CCC(=O)N1CC(c2c(C)c(Cl)cc(C(C)n3nc(C)c4c(N)ncnc43)c2OC)C1` (stereo not shown) [Example 3, 1-{1-[5-Chloro-2-methoxy-4-methyl-3-(1-propionylazetidin-3-yl)phenyl]ethyl}-3-methyl-1H-pyrazolo[3,4-d]pyrimidin-4-amine trifluoroacetate], the IC50 was less than 0.01 µM.
`CCC(C)N1CC(c2c(C)c(Cl)cc(C(C)n3nc(C)c4c(N)ncnc43)c2OC)C1` (stereo not shown) [Example 8, 1-{1-[3-(1-sec-butylazetidin-3-yl)-5-chloro-2-methoxy-4-methylphenyl]ethyl}-3-methyl-1H-pyrazolo[3,4-d]pyrimidin-4-amine]: the half-inhibitory concentration (IC50) is less than 0.01 µM.
Next, `COc1c(C(C)n2nc(C)c3c(N)ncnc32)cc(Cl)c(C)c1-c1ccc(C(=O)N(C)C)nc1` (stereo not shown) [Example 11, 5-{3-[1-(4-Amino-3-methyl-1H-pyrazolo[3,4-d]pyrimidin-1-yl)ethyl]-5-chloro-2-methoxy-6-methylphenyl}-N,N-dimethylpyridine-2-carboxamide bis(trifluoroacetate)]: less than 0.01 µM.
With `CCOc1c(C(C)n2nc(C)c3c(N)ncnc32)cc(Cl)c(C)c1-c1ccc(C(=O)N(C)C)nc1` (stereo not shown) [Example 14, 5-{3-[1-(4-Amino-3-methyl-1H-pyrazolo[3,4-d]pyrimidin-1-yl)ethyl]-5-chloro-2-ethoxy-6-methylphenyl}-N,N-dimethylpyridine-2-carboxamide bis(trifluoroacetate)], the concentration for half-maximal inhibition (IC50) was less than 0.01 µM.
Consider `COc1c(C(C)n2nc(C)c3c(N)ncnc32)cc(Cl)c(C)c1-c1ccc(C(=O)NCCO)nc1` (stereo not shown) [Example 23, 5-(3-(1-(4-amino-3-methyl-1H-pyrazolo[3,4-d]pyrimidin-1-yl)ethyl)-5-chloro-2-methoxy-6-methylphenyl)-N-(2-hydroxyethyl)picolinamide trifluoroacetate], for which the IC50 was less than 0.01 µM.
In the case of `COc1c(C(C)n2nc(C)c3c(N)ncnc32)cc(Cl)c(F)c1C1CN(C)C1` (stereo not shown) [Example 72], the IC50 is less than 0.01 µM.
Regarding `CCOc1c(C(C)n2nc(C)c3c(N)ncnc32)cc(Cl)c(C)c1C1CN(C[C@H](C)O)C1` (stereo partly drawn) [Example 96, (2S)-1-(3-{3-[1-(4-Amino-3-methyl-1H-pyrazolo[3,4-d]pyrimidin-1-yl)ethyl]-5-chloro-2-ethoxy-6-methylphenyl}azetidin-1-yl)propan-2-ol bis(trifluoroacetate)], the IC50 is less than 0.01 µM.
For `CCOc1c(C(C)n2nc(C)c3c(N)ncnc32)cc(Cl)c(C)c1C1CN(C(=O)[C@H](C)O)C1` (stereo partly drawn) [Example 99, (2S)-1-(3-{3-[1-(4-Amino-3-methyl-1H-pyrazolo[3,4-d]pyrimidin-1-yl)ethyl]-5-chloro-2-ethoxy-6-methylphenyl}azetidin-1-yl)-1-oxopropan-2-ol trifluoroacetate] the value was less than 0.01 µM.
As to `CNC(=O)[C@@H](C)N1CC(c2c(C)c(Cl)cc(C(C)n3nc(C)c4c(N)ncnc43)c2OC)C1` (stereo partly drawn) [Example 110, (2R)-2-(3-{3-[1-(4-Amino-3-methyl-1H-pyrazolo[3,4-d]pyrimidin-1-yl)ethyl]-5-chloro-2-methoxy-6-methylphenyl}azetidin-1-yl)-N-methylpropanamide trifluoroacetate], the IC50 was less than 0.01 µM.
Take `COc1c(C(C)n2nc(C)c3c(N)ncnc32)cc(Cl)c(C)c1C1CN(C(CO)C(F)(F)F)C1` (stereo not shown) [Example 113, 2-(3-{3-[1-(4-Amino-3-methyl-1H-pyrazolo[3,4-d]pyrimidin-1-yl)ethyl]-5-chloro-2-methoxy-6-methylphenyl}azetidin-1-yl)-3,3,3-trifluoropropan-1-ol]: the concentration for half-maximal inhibition (IC50) was less than 0.01 µM.
For `CCOc1c(C(C)n2nc(C)c3c(N)ncnc32)cc(Cl)c(F)c1C1CN(C[C@H](C)O)C1` (stereo partly drawn) [Example 149, (2S)-1-(3-{3-[1-(4-Amino-3-methyl-1H-pyrazolo[3,4-d]pyrimidin-1-yl)ethyl]-5-chloro-2-ethoxy-6-fluorophenyl}azetidin-1-yl)propan-2-ol], the 50% inhibitory concentration (IC50) is less than 0.01 µM.
With `COc1c(C(C)n2nc(C)c3c(N)ncnc32)cc(Cl)c(C)c1C1CN([C@H](C)CO)C1` (stereo partly drawn) [Example 156, (2R)-2-(3-{3-[1-(4-Amino-3-methyl-1H-pyrazolo[3,4-d]pyrimidin-1-yl)ethyl]-5-chloro-2-methoxy-6-methylphenyl}azetidin-1-yl)propan-1-ol], the half-maximal inhibitory concentration (IC50) is less than 0.01 µM.
For `COc1c(C(C)n2nc(C)c3c(N)ncnc32)cc(Cl)c(C)c1C1CN([C@H](C)C(=O)N(C)C)C1` (stereo partly drawn) [Example 159, (2R)-2-(3-{3-[1-(4-Amino-3-methyl-1H-pyrazolo[3,4-d]pyrimidin-1-yl)ethyl]-5-chloro-2-methoxy-6-methylphenyl}azetidin-1-yl)-N,N-dimethylpropanamide] the value was less than 0.01 µM; for `COc1c(C(C)n2nc(C)c3c(N)ncnc32)cc(Cl)c(C)c1-c1ccnc(C(=O)N(C)C)c1` (stereo not shown) [Example 200, 4-(3-(1-(4-Amino-3-methyl-1H-pyrazolo[3,4-d]pyrimidin-1-yl)ethyl)-5-chloro-2-methoxy-6-methylphenyl)-N,N-dimethylpicolinamide bis(2,2,2-trifluoroacetate)], less than 0.01 µM.
